Three molecules from US9457033B2, “Steroid alkaloids and uses thereof as antimicrobial agents against electron transport-deficient microbes and as potentiators for antimicrobial agents against pathogenic bacteria” (priority 2011, dated 2016) can be followed below.

For assay [1], the system named is S. aureus SCV CF07S. Kind of assay: microbe, parasite or virus in culture. It is filed as cell-based. The settings on record: Staphylococcus aureus, SCVCF07S; Tomatidine (50 μg); menadione auxotrophy; 24 hours at 37° C. with O2; DMSO control 0; read-out: Diameter of inhibition zone.
Assay [2] relates to S. aureus SCV CF6A-S. In words: microbe, parasite or virus in culture. Type of assay: cell-based. The settings on record: Staphylococcus aureus, SCVCF6AS; Tomatidine (50 μg); thymidine auxotrophy; 24 hours at 37° C. with O2; DMSO control 0; read-out: Diameter of inhibition zone.
Assay [3] has as its system S. aureus SCV CF41A-S. Kind of assay: microbe, parasite or virus in culture. It is filed as cell-based. Conditions: Staphylococcus aureus, SCVCF41AS, 24 h, read-out: Diameter of inhibition zone.
Assay [4] concerns Clostridium perfringens ATCC 13124. In words: microbe, parasite or virus in culture. Type of assay: cell-based. Conditions: ATCC13124, 48 h, read-out: Diameter of inhibition zone.
Assay [5] has as its system SCV NewbouldΔhemB. In words: Tomatidine susceptibility with supplemental hemin, spotted on agar (FIG. 1A). It is filed as cell-based, Staphylococcus aureus. Conditions: in the presence of supplemental hemin. As for the experimental part: (§1) Normal (Newbould, CF07-L and CF1A-L), and SCV (NewbouldΔhemB (in the presence and absence of hemin), CF07-S (in the presence and absence of menadione) and CF1D-S) S. aureus strains were treated with various concentrations of tomatidine (4, 2, 1, 0.5, 0.25, 0.12 and 0.06 μg/ml) for 48 h in the Brain Hearth Infusion (BHI) medium at 35° C. and 10 μl samples were thereafter spotted on agar plated which were further incubated for 48 h before a picture was taken.

The test system of assay [6] is SCV CF07-S. In words: Tomatidine susceptibility with supplemental menadione, spotted on agar (FIG. 1A). The settings on record: in the presence of supplemental menadione. It is filed as cell-based, Staphylococcus aureus. The method, then:
as §1

For assay [7], the system named is SCV strain CF07-S. In words: Time-kill experiment (FIG. 1C). Type of assay: cell-based, Staphylococcus aureus. Conditions: tomatidine at 0.25 μg/ml (2×MIC). As for the experimental part:
(§2) (225 RPM), bacteria were sampled, serially diluted and plated on tryptic soy agar (TSA) for colony-forming unit (CFU) determinations (i.e., viable bacterial counts). Plates were incubated for 24 or 48 h at 35° C. for normal and SCV strains, respectively. The antibacterial activities of tomatidine and control antibiotics (erythromycin (a bacteriostatic macrolide) and ciprofloxacin (a bactericidal fluoroquinolone) against the normal CF07-L strain and the SCV CF07-S as a function of time are presented in FIGS. 1B and 1C, respectively. The antibacterial activity of tomatine against the SCV strain was also evaluated (TN in FIG. 1C).

In assay [8] the test system is normal CF07-L strain. Kind of assay: Time-kill experiment (FIG. 1B). Conditions: tomatidine 16 μg/ml. It is filed as cell-based, Staphylococcus aureus. As for the experimental part:
as §2

The subject of assay [9] is protein, DNA, RNA and cell wall peptidoglycan biosynthesis in ATCC 29213. Kind of assay: Macromolecular biosynthesis assay, incorporation of radiolabeled precursors. It is filed as cell-based, Staphylococcus aureus.
For assay [10], the system named is Bacillus cereus ATCC 11778. Kind of assay: Agar diffusion method, zone of inhibition. Type of assay: cell-based. The settings on record: ATCC11778, Tomatidine (35 μg), 24 hours at 35° C., DMSO 0, read-out: Diameter of inhibition zone. As for the experimental part:
(§3) The effect of tomatidine on the growth of Bacillus subtilis strains ATCC 6633 and ATCC 9372, Bacillus cereus strain ATCC 11778 and Listeria monocytogenes strain ATCC 13932 was tested by an agar diffusion method. Bacillus spp. strains and Listeria monocytogenes were spread on the surface of Mueller-Hinton agar and Mueller-Hinton supplemented with 5% sheep blood, respectively. 35 μg of tomatidine diluted in DMSO or DMSO alone were added to wells for diffusion and plates were incubated for 24 hours at 35° C. The diameters of the zones of inhibition around the wells (for the DMSO control and for the tomatidine well) were measured and reported in mm in TABLE 12 below.
(In agar diffusion tests the substance spreads into inoculated agar from a disc or well.)

In assay [11] the test system is Bacillus subtilis ATCC 6633. In words: Agar diffusion method, zone of inhibition. It is filed as cell-based. Conditions: ATCC6633, Tomatidine (35 μg), 24 hours at 35° C., DMSO 5, read-out: Diameter of inhibition zone. The method, then:
as §3

Assay [12] has as its system Bacillus subtilis ATCC 9372. Kind of assay: Agar diffusion method, zone of inhibition. Type of assay: cell-based. Conditions: ATCC9372, Tomatidine (35 μg), 24 hours at 35° C., DMSO 0, read-out: Diameter of inhibition zone. The method, then: as §3
Assay [13] relates to Listeria monocytogenes ATCC 13932. In words: Agar diffusion method, zone of inhibition. It is filed as cell-based. Conditions: ATCC13932, Tomatidine (35 μg), 24 hours at 35° C., 5% sheep blood, DMSO 0, read-out: Diameter of inhibition zone. The method, then: as §3
Assay [14] concerns S. aureus SCVs (NewbouldΔhemB, CF07-S and CF1D-S). In words: MIC, microdilution in BHI 48 h, summary for SCVs. The settings on record: Staphylococcus aureus, read-out: MIC against all SCVs. It is filed as cell-based, Staphylococcus aureus. On the technique in general: Dilution methods test growth across graded concentrations, often in twofold steps.
For assay [15], the system named is colonies isolated from S. aureus ATCC 29213 cultures exposed to gentamicin. In words: Gentamicin susceptibility of colonies isolated from 24 h-cultures exposed to gentamicin. Type of assay: cell-based, Staphylococcus aureus. As for the experimental part:
Accordingly, colonies isolated from 24 h-cultures exposed to gentamicin were often normal-growing bacteria with a decreased susceptibility to gentamicin (MIC ranging from 1 to 4 μg/ml) or SCVs (MIC for gentamicin ranging from 4 to 8 μg/ml). […] From these time-kill experiments, isolated colonies obtained from cultures exposed to gentamicin combined or not with 8 μg/ml tomatidine were analyzed for their susceptibility to gentamicin. When ATCC 29213 was exposed to gentamicin alone, the emergence of numerous normal-growing isolates showing decreased susceptibility to gentamicin (MIC ranging from 1 to 4 mg/L) was easily detected.

Assay [16] concerns SCV CF07-S. Kind of assay: Broth growth with gentamicin or tomatidine, visually evaluated (FIG. 5B). The settings on record: gentamicin at 4 μg/ml or tomatidine at 0.12 μg/ml alone, 48 h.
In assay [17] the test system is heterogeneous population of normal strain CF07-L and SCV CF07-S. Kind of assay: Broth growth with gentamicin and tomatidine, visually evaluated (FIG. 5C). The settings on record: combination of gentamicin at 4 μg/ml and tomatidine at 0.12 μg/ml.
For assay [18], the system named is S. aureus SCV strain CF6A-S. In words: microbe, parasite or virus in culture. Conditions: Staphylococcus aureus. Type of assay: cell-based.
Assay [19] has as its system S. saprophyticus ATCC 15305. In words: MIC, microdilution, with or without tomatidine. Conditions: for MIC: Staphylococcus saprophyticus.
The mark [20] stands for this setting: colonies from 24 h-cultures exposed to gentamicin.

Converted amounts (≈) assume the structure as drawn. Read-outs that look alike come from different tables or passages of the source.

For the molecule `C[C@H]1CC[C@]2(NC1)O[C@H]1C[C@H]3[C@@H]4CC[C@H]5C[C@@H](O)CC[C@]5(C)[C@H]4CC[C@]3(C)[C@H]1[C@@H]2C` [Tomatidine, tomatidine], the zone of inhibition at 50 µg/disc in assay [1] turned out to be 22.5 mm; in assay [2], 23 mm; in assay [3], 21.5 mm; in [4], 11 mm. The susceptibility to tomatidine result in assay [5] and in [6] was “abolished” each time. In addition, in [7], the “time-kill effect on growth and viability” value is listed as “induced bacteriostasis”. Also, the “time-kill effect on growth” value in assay [8] is on record as “does not affect the growth”. In addition, in assay [9] (in the presence of 20 μg HQNO/ml, all tested concentrations above 0.12 μg/ml, FIG. 3C), the biosynthesis of macromolecules result is “decreased the biosynthesis of all macromolecules”. Also, the synthesis of macromolecules entry in assay [9] (tomatidine up to 125 μg/ml, no HQNO, vs DMSO-treated control, FIG. 3B) was “did not alter the synthesis of any macromolecule”. Also, the zone of inhibition at 35 µg/disc was 21.5 mm in assay [10], 25.5 mm in assay [11], 25.5 mm in assay [12] and 12.5 mm in assay [13]. For the same molecule, the MIC in assay [14] amounted to 0.12 µg/mL (≈ 0.289 µM).
Take gentamicin: the “MIC of normal-growing isolates showing decreased susceptibility to gentamicin” value in [15] (ATCC 29213 exposed to gentamicin alone) lay in the range of 1 to 4 µg/mL. Also, in assay [15] (setting [20]), the “MIC for gentamicin of SCVs” value lay within 4 to 8 µg/mL and the “MIC for gentamicin of normal-growing bacteria with decreased susceptibility” value lay within 1 to 4 µg/mL. Also, in [16], the “growth, visually evaluated” value is reported as “does not inhibit the growth”. Moreover, the “growth, visually evaluated” value in assay [17] was “inhibits the growth”.
For `NC[C@H]1O[C@H](O[C@H]2[C@H](O)[C@@H](O[C@H]3O[C@H](CO)[C@@H](O)[C@H](N)[C@H]3O)[C@H](N)C[C@@H]2N)[C@H](N)C[C@@H]1O` [Tobramycin, tobramycin], the MIC in [18] is greater than 32 µg/mL; in [19] (ATCC15305, read-out: MIC +TO), 0.016 µg/mL (≈ 0.0342 µM); in assay [19] (ATCC15305, read-out: MIC −TO), 0.12 µg/mL (≈ 0.257 µM). Also, the “Fold (−TO/+TO)” value in assay [19] (S. saprophyticus ATCC 15305, 8 μg/ml of tomatidine) is recorded as 8 fold.

For orientation: zone of inhibition means the size of the clear area around the sample on an inoculated plate.
